Measured values: PubChem BioAssay (NCI)
Several values for one entry are separate records, joined by “and”; a condition that tells them apart may be missing. Identical values can stand only once.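 Grown in 96-well plates, cells were treated for 48 hours with each compound at five concentrations. Insufficient inhibition: endpoint recorded as highest concentration tested. At the GI50, growth is halved. Definition used: TGI = concentration required for complete inhibition of growth.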

system: RXF 393 renal; test: NCI anticancer screen, dose series, 48 h

Structure (SMILES) | GI50 | TGI
c1ccc(-c2n(Cc3ccc4ccccc4n3)cc[n+]2Cc2ccc3ccccc3c2)cc1 | 1.34 µM | 3.38 µM
O=C(Nc1cccc(C(F)(F)F)c1)Nc1cccc(C(F)(F)F)c1 | 1.49 µM | 4.35 µM
CC(C)(C)[Si](C)(C)OC1[C@@H](O[Si](C)(C)C(C)(C)C)[C@@H](CNC(=O)NC(=O)C(F)(F)F)O[C@H]1n1cnc2c(NC(=O)Nc3ccccc3)ncnc21 (some centres undefined) | 1.3 µM | 4.25 µM
CCOC(=O)n1cc(C2=C(c3ccc(OC)c(OC)c3)COC2=O)c2ccccc21 | 0.0252 µM | > 100 µM
CC(=C(c1ccc(OCCN2CCCCC2)cc1)c1ccc(OCCN2CCCCC2)cc1)c1ccc(Cl)cc1 | 0.375 µM | 0.743 µM
C=CC(=O)Nc1cc(Nc2nccc(-c3cn(C)c4ccccc34)n2)c(OC)cc1N(C)CCN(C)C | 1.45 µM and 1.34 µM | 3.1 µM and 2.98 µM
CC(=O)OC1(C)N=NC2(CCCCC2)O1 (centres undefined) | – | > 100 µM
COc1ccc2ncnc(Nc3ccc(OCc4ccccc4)cc3)c2c1 | 4.59 µM | 10.2 µM
O=C1c2c(F)c(F)c(F)c(F)c2C(=O)N1c1ccc(F)cc1F | 7.68 µM | > 46.7 µM
CC(C)[C@@H]1NC(=O)[C@]2(C)CSC(=N2)c2ccnc(c2)CNC(=O)C[C@@H](/C=C/CCS)OC1=O | 0.0828 µM | 0.562 µM
OC(c1cc(C(F)(F)F)nc2c(C(F)(F)F)cccc12)C1CCCCN1 (centres undefined) | 1.71 µM | 4.53 µM
C/C=C/[C@@H]1O[C@@H]2COC(=O)C2=C[C@@H]1O | 15 µM | 39.7 µM
COC(=O)/C=C/c1cc(OC(C)=O)c2c(c1)[C@@H](C(=O)OC)[C@H](c1ccc(OC(C)=O)c(OC(C)=O)c1)O2 | 0.075 µM | 3.03 µM

system: SK-MEL-5 melanoma; test: NCI anticancer screen, dose series, 48 h

Structure (SMILES) | GI50 | TGI
CC[C@@H](c1ccc(O)c(O)c1)[C@@H](CC)c1ccc(O)c(O)c1 | 13.6 µM | 28.9 µM
COc1cc(-c2nc3sccn3c2-c2ccnc(NCCNS(=O)(=O)c3ccc(F)cc3)n2)ccc1F | 1.28 µM | 2.63 µM
COc1cc(-c2nn(-c3cccc(NC(=O)c4ccccc4)c3)cc2-c2ccncc2)ccc1Cl | 0.259 µM | 0.945 µM
Cc1cc(Nc2ccc(C)c(Cl)c2)n2nc(C(F)(F)F)nc2n1 | 14.3 µM | 27.9 µM
O=C1CSC(=S)N1/N=C/c1ccc(Cl)c([N+](=O)[O-])c1 | – | > 100 µM
C#Cc1cccc(Nc2nc3cc([N+](=O)[O-])ccc3nc2Nc2ccc(O)cc2)c1 | 1.79 µM | 3.23 µM
CN(C)CC(O)c1ccc(/C=C/c2ccc(Cl)cc2)cc1 (centres undefined) | 3.49 µM | 13.7 µM
CCCCCCCCCCSC(=N)N (tested in a mixture with another compound) | 2.83 µM | 8.55 µM
CCOc1ccc(NC2=CC(=O)C(=O)c3ccccc32)cc1 | – | 2.95 µM
COc1cc2c(cc1OC)-c1cc(OC)c(OC)cc1C(CN(C)C)C2 (centres undefined) | > 10 µM | > 10 µM
O=C1c2ccccc2C(=O)c2c(/C=C\N3CCCCC3)ccnc21 | – | 1.1 µM
C=C1C[C@H](O)[C@H](Br)C(C)(C)[C@@]12CCC(C)=C(Cl)C2 | 0.253 µM | 0.866 µM
O=C(NC1CCCCC1)NS(=O)(=O)c1ccc(N2N=C3c4ccccc4CC3C2c2ccc(Cl)cc2)cc1 (centres undefined) | 3.69 µM | 18.3 µM
c1ccc(-c2n(Cc3ccc4ccccc4n3)cc[n+]2Cc2ccc3ccccc3c2)cc1 | 0.538 µM | 1.55 µM
O=C(Nc1cccc(C(F)(F)F)c1)Nc1cccc(C(F)(F)F)c1 | 1.28 µM | 2.55 µM
CC(C)(C)[Si](C)(C)OC1[C@@H](O[Si](C)(C)C(C)(C)C)[C@@H](CNC(=O)NC(=O)C(F)(F)F)O[C@H]1n1cnc2c(NC(=O)Nc3ccccc3)ncnc21 (some centres undefined) | 2.72 µM | 9.18 µM
CCOC(=O)n1cc(C2=C(c3ccc(OC)c(OC)c3)COC2=O)c2ccccc21 | 0.041 µM | 0.48 µM
CC(=C(c1ccc(OCCN2CCCCC2)cc1)c1ccc(OCCN2CCCCC2)cc1)c1ccc(Cl)cc1 | 0.443 µM | 0.793 µM
C=CC(=O)Nc1cc(Nc2nccc(-c3cn(C)c4ccccc34)n2)c(OC)cc1N(C)CCN(C)C | 1.72 µM | 3.13 µM
CC(=O)OC1(C)N=NC2(CCCCC2)O1 (centres undefined) | – | > 100 µM
COc1ccc2ncnc(Nc3ccc(OCc4ccccc4)cc3)c2c1 | 4.62 µM | 11.8 µM
O=C1c2c(F)c(F)c(F)c(F)c2C(=O)N1c1ccc(F)cc1F | 13.1 µM | 30.6 µM
CC(C)[C@@H]1NC(=O)[C@]2(C)CSC(=N2)c2ccnc(c2)CNC(=O)C[C@@H](/C=C/CCS)OC1=O | 0.0715 µM | 0.323 µM
OC(c1cc(C(F)(F)F)nc2c(C(F)(F)F)cccc12)C1CCCCN1 (centres undefined) | 1.68 µM | 3.07 µM
C/C=C/[C@@H]1O[C@@H]2COC(=O)C2=C[C@@H]1O | 16.7 µM | 31.5 µM
COC(=O)/C=C/c1cc(OC(C)=O)c2c(c1)[C@@H](C(=O)OC)[C@H](c1ccc(OC(C)=O)c(OC(C)=O)c1)O2 | 0.0493 µM | 2.34 µM

system: SNB-19 CNS; test: NCI anticancer screen, dose series, 48 h

Structure (SMILES) | GI50 | TGI
CC[C@@H](c1ccc(O)c(O)c1)[C@@H](CC)c1ccc(O)c(O)c1 | 40.4 µM | > 100 µM
COc1cc(-c2nc3sccn3c2-c2ccnc(NCCNS(=O)(=O)c3ccc(F)cc3)n2)ccc1F | 5.33 µM | > 100 µM
COc1cc(-c2nn(-c3cccc(NC(=O)c4ccccc4)c3)cc2-c2ccncc2)ccc1Cl | 1.37 µM | > 100 µM
Cc1cc(Nc2ccc(C)c(Cl)c2)n2nc(C(F)(F)F)nc2n1 | 29.4 µM | > 100 µM
O=C1CSC(=S)N1/N=C/c1ccc(Cl)c([N+](=O)[O-])c1 | – | 60.8 µM
C#Cc1cccc(Nc2nc3cc([N+](=O)[O-])ccc3nc2Nc2ccc(O)cc2)c1 | 1.78 µM | 3.19 µM
CN(C)CC(O)c1ccc(/C=C/c2ccc(Cl)cc2)cc1 (centres undefined) | 2.88 µM | 10.4 µM
CCCCCCCCCCSC(=N)N (tested in a mixture with another compound) | 4.28 µM | 18.2 µM
CCOc1ccc(NC2=CC(=O)C(=O)c3ccccc32)cc1 | – | 9.46 µM
COc1cc2c(cc1OC)-c1cc(OC)c(OC)cc1C(CN(C)C)C2 (centres undefined) | > 10 µM | > 10 µM
O=C1c2ccccc2C(=O)c2c(/C=C\N3CCCCC3)ccnc21 | – | 17.1 µM
C=C1C[C@H](O)[C@H](Br)C(C)(C)[C@@]12CCC(C)=C(Cl)C2 | 0.683 µM | 14.1 µM
O=C(NC1CCCCC1)NS(=O)(=O)c1ccc(N2N=C3c4ccccc4CC3C2c2ccc(Cl)cc2)cc1 (centres undefined) | 21.6 µM | 97.5 µM
c1ccc(-c2n(Cc3ccc4ccccc4n3)cc[n+]2Cc2ccc3ccccc3c2)cc1 | 0.865 µM | 3.54 µM
O=C(Nc1cccc(C(F)(F)F)c1)Nc1cccc(C(F)(F)F)c1 | 0.658 µM | 9.93 µM
CCOC(=O)n1cc(C2=C(c3ccc(OC)c(OC)c3)COC2=O)c2ccccc21 | 0.0551 µM | > 100 µM
CC(=C(c1ccc(OCCN2CCCCC2)cc1)c1ccc(OCCN2CCCCC2)cc1)c1ccc(Cl)cc1 | 0.438 µM | 0.81 µM
C=CC(=O)Nc1cc(Nc2nccc(-c3cn(C)c4ccccc34)n2)c(OC)cc1N(C)CCN(C)C | 2.69 µM and 2.06 µM | 18.4 µM and > 10 µM
CC(=O)OC1(C)N=NC2(CCCCC2)O1 (centres undefined) | – | > 100 µM
COc1ccc2ncnc(Nc3ccc(OCc4ccccc4)cc3)c2c1 | 9.78 µM | > 25 µM
O=C1c2c(F)c(F)c(F)c(F)c2C(=O)N1c1ccc(F)cc1F | 16.8 µM | 39.8 µM
CC(C)[C@@H]1NC(=O)[C@]2(C)CSC(=N2)c2ccnc(c2)CNC(=O)C[C@@H](/C=C/CCS)OC1=O | 0.283 µM | > 39.4 µM
OC(c1cc(C(F)(F)F)nc2c(C(F)(F)F)cccc12)C1CCCCN1 (centres undefined) | 2.75 µM | 8.22 µM
C/C=C/[C@@H]1O[C@@H]2COC(=O)C2=C[C@@H]1O | 24.2 µM | > 57 µM
COC(=O)/C=C/c1cc(OC(C)=O)c2c(c1)[C@@H](C(=O)OC)[C@H](c1ccc(OC(C)=O)c(OC(C)=O)c1)O2 | 0.431 µM | > 100 µM
